Test results as given in patent US5865792A, “Reduction of skin irritation during electrotransport delivery” (priority 1997, dated 1999).

How the values were obtained:
skin [1] = assay: skin irritation (α), electrotransport of placebo drug (sodium chloride), hydrocortisone in the cathodic reservoir (Example IV); format: in vivo
Description: In vivo electrically assisted delivery of a placebo drug (sodium chloride) with various liquid solvents was accomplished both with and without co-delivery of an anti-inflammatory agent (hydrocortisone) using electrotransport systems substantially similar to those described in Example II. Four different electrotransport system configurations were constructed.
The anode material used in each of the systems was silver foil and the cathode material used in each of the systems was silver chloride. The size of the gels and the applied current levels were the same as in Example II.

human skin [2] = assay: skin irritation (α), electrotransport of placebo drug (sodium chloride) in 50% propylene glycol with and without hydrocortisone (Example V); format: in vivo, human volunteer; conditions: FIG. 8; 0.5% (w/v) hydrocortisone in 50% propylene glycol, cathodic and anodic reservoirs; 100 μA/cm^2, 3 h
Method: In vivo electrically assisted delivery of a placebo drug (sodium chloride), with a liquid solvent in which hydrocortisone has good solubility, was accomplished both with and without co-delivery of hydrocortisone using electrotransport systems substantially similar to those described in Example II, and having anodic/cathodic reservoir gels of the following formulations: […]
An electrotransport system was constructed having anodic and cathodic reservoirs comprised of 350 μl of gel formulation I. This system was applied on the left forearm of a human volunteer. The skin contact area of each electrode gel was 2 cm^2. The anode material used in the systems was silver foil and the cathode material used in each of the systems was silver chloride. The electrodes were connected to a galvanostat preset to deliver a constant current of 100 μA/cm^2. Simultaneously another electrotransport system with similar size and current density, but whose anodic and cathodic reservoirs were comprised of 350 μl of gel formulation II was applied on the right forearm of the same volunteer. The systems were worn for 3 hours. After removal, skin irritation (α) was monitored using the Minolta Chroma Meter.

human skin [3] = test system: human skin
skin [4] = conditions: prolonged exposure; cited from earlier work
skin [5] = conditions: otherwise equivalent reservoirs; cited from earlier work
[6] = metoclopramide blood plasma concentrations during/after electrotransport delivery with and without hydrocortisone (HPLC); format: in vivo, human volunteers; conditions: FIG. 3; 10% MCP, 0.5% HC in anodic reservoir vs MCP alone; 100 μA/cm^2, 4 h
Description: MCP is a water soluble drug salt.

[7] = water; cited from earlier work

| Structure (SMILES) | reduction of erythema of the skin in contact with the cathodic reservoir (skin [1]; 0.25 mg/mL hydrocortisone in water) | reddening of the skin in contact with the cathodic reservoir (skin [1]; FIG. 7, system 1: 5 mg/mL hydrocortisone, 40% ethanol, vs 40% ethanol without hydrocortisone) | erythema values, System 3 vs System 4 (skin [1]; System 3: 0.25 mg/mL hydrocortisone in water, no ethanol) | erythema compared to reservoirs containing no hydrocortisone (human skin [2]) | skin irritation (α) vs. anodic reservoirs containing no hydrocortisone (human skin [3]; FIG. 2, 0.5% HC with 10% MCP in anodic reservoir, 4 h wear, 1, 4, 24, 48 h after removal) | local side effects such as skin thinning (skin [4]) | electroosmotic flux from a cathodic reservoir vs. equivalent anodic reservoir (skin [5]) | effect of addition of hydrocortisone on delivery of metoclopramide into the bloodstream [6] | skin irritation caused by the drug (human skin [3]; in vivo) | solubility in words [7] |
| --- | --- | --- | --- | --- | --- | --- | --- | --- | --- | --- |
| C[C@]12CCC(=O)C=C1CC[C@@H]1[C@@H]2C(O)C[C@@]2(C)[C@H]1CC[C@]2(O)C(=O)CO (stereo partly shown) [hydrocortisone, 11,17,21-trihydroxypregn-4-ene-3,20-dione] | insufficient to reduce erythema | significant reduction in the reddening of the skin | substantially the same (i.e., at most only about one α unit apart) | substantially less erythema | less skin irritation | does not result in unacceptable local side effects such as skin thinning | substantially lower | – | – | – |
| CCN(CC)CCNC(=O)c1cc(Cl)c(N)cc1OC [metoclopramide HCI] | – | – | – | – | – | – | – | does not significantly affect the delivery of metoclopramide into the bloodstream | skin irritating drug | water soluble |
